Literature values in patent US20180028451A1, “IMMEADIATE RELEASE ORAL TABLET” (Boehringer Ingelheim International GmbH, priority 2015, published 2018).

Conditions: physiological pH range of the gastro-intestinal tract between pH 1 to 7

CCCc1nc2c(C)cc(-c3nc4ccccc4n3C)cc2n1Cc1ccc(-c2ccccc2C(=O)O)cc1 [Telmisartan, 4′-[2-n-propyl-4-methyl-6-(1-methylbenzimidazol-2-yl)-benzimidazol-1-ylmethyl]-biphenyl-2-carboxylic acid]
solubility in aqueous systems: very poor solubility
